Source: US9365559B2, “Crystal form of Dabrafenib and preparation method of use thereof” (Hangzhou Pushai Pharmaceutical Technology Co., LTD., priority 2013, dated 2016)
Entries after “also recorded” stand apart in the source; their conditions may differ.

Columns and labels:
[1] = Crystal form stability during wet granulation tablet preparation (XRPD); format: physicochemical
Excerpt: The Known Crystal Form 1, the Known Crystal Form 2 and Crystal Form VI of the present invention are examined for their stability during the formulation preparation of the wet granulation process.
The preparation process of the tablet is a parallel experiment.
(1) Blend API (selected from the Known Crystal Form 1, the Known Crystal Form 2 or Crystal Form VI of the present invention), lactose (monohydrate) and microcrystalline cellulose uniformly.
(2) Make the above mixture into soft materials by using an appropriate amount of 50% aqueous ethanol solution, screen to produce the wet granules and then dry the wet granules.
(3) Granulate the dried sample, blend with polyethylene glycol 6000 uniformly and then compress into tablets.
Respectively, take XRPD tests on the following samples obtained in the formulation preparing process of the Known Crystal Form 1, the Known Crystal Form 2 and Crystal Form VI of the present invention: (Sample 1) the sample obtained by physically blending API, lactose, microcrystalline cellulose with polyethylene glycol 6000 according to the preparation formula; (Sample 2) the sample obtained by granulating with API, lactose, microcrystalline cellulose and polyethylene glycol 6000 according to the “wet granulation” process (excluding the sample obtained after the Step (3)); (Sample 3) excluding API, the sample obtained by physically blending lactose, microcrystalline cellulose with polyethylene glycol 6000 according to the preparation formula.

[2] = Crystal form stability in capsules prepared by wet granulation (XRPD); format: physicochemical
Excerpt: The preparation of the capsules containing the crystal forms of the present invention.
3) Blend API (selected from the Known Crystal Form 1, the Known Crystal Form 2 and Crystal Form VI of the present invention), microcrystalline cellulose (avicel) and sodium carboxymethyl starch (SSG) uniformly.
4) Make the above mixture into soft materials by using an appropriate amount of 50% aqueous ethanol solution, then screen to produce the wet granules.
5) Dry the wet granules, grind and disperse uniformly and then transfer them into the capsules.

[3] = Crystal form stability in oral suspension (XRPD); format: physicochemical
Protocol: The preparation of the oral suspension containing the crystal forms of the present invention.
API (selected from Crystal Form VI of Dabrafenib of the present invention): 2 g;
Blend API (selected from Crystal Form VI of Dabrafenib of the present invention), cocklebur gum, sodium dihydrogen citrate, methylparaben, syrupus simplex and orange flavor, add water to 1,000 mL and stir the mixture uniformly. After that, divide the solution into 100 bottles with 20 mg API in each bottle.

[4] = Storage stability test (XRPD before and after storing); format: physicochemical; conditions: room temperature-97% RH, -75% RH, -44% RH or oven of 40° C.; for Storage stability (crystal form by XRPD): stored 3 months in desiccator at room temperature; for Storage stability (crystal form): stored for a long time in desiccator at room temperature
Excerpt: The storage stability test is: storing the sample under constant conditions (i.e. constant humidity or constant temperature) for a certain time, and then comparing the XRPDs before and after storing.

[5] = Polarized light microscopy (PLM) morphology; format: physicochemical
Excerpt: Polarized Light Microscope (PLM) plots are collected from XP-500E polarized light microscope (by Shanghai Changfang Optical Instrument Co., Ltd). Place a small amount of powder sample on a slide glass, drip some mineral oil to disperse the powder sample, place the cover slip, then place the sample on the loading table of XP-500E polarized light microscope, choose the appropriate magnitude to observe the morphology of the sample and take pictures thereof.
(§1) The morphology comparison is obtained by PLM testing of particle shape and PSD testing of particle size.

[6] = Dynamic vapor sorption (DVS) hygroscopicity; format: physicochemical; conditions: from DVS, 20~80% RH
Protocol: The dynamic vapor sorption analysis (DVS) data are collected by TA Instruments Q5000 TGA; the instrument control software is Thermal Advantage and the analysis software is Universal Analysis. Generally, take 1˜10 mg of the sample and place it in a platinum pan, and the weight changes of the sample are recorded during the course of the relative humidity changing from 0% to 80% and then to 0%. According to the specifics of the samples, different adsorption and desorption steps may be used.
The hygroscopicity is obtained by DVS testing of the weight changes between 20%-80% RH.

[7] = Crystal form stability during wet granulation tablet preparation (XRPD); format: physicochemical; conditions: tablet prepared by wet granulation, stored 6 months at 40° C./75% RH
[8] = Crystal form stability on stirring in or exposure to water, aqueous ethanol or other solvent; format: physicochemical; conditions: stirred in water or aqueous ethanol solution at room temperature or high temperature (40° C.)
[9] = Thermogravimetric analysis (TGA), thermal stability; format: physicochemical; conditions: for decomposition temperature: TGA, 10° C./min, dry N2; for stability at high temperature (in words): conclusion from DSC/TGA test results
Protocol: The thermogravimetric analysis (TGA) data are collected by TA Instruments Q500 TGA; the instrument control software is Thermal Advantage and the analysis software is Universal Analysis. Generally, take 5˜15 mg sample and place it in a platinum pan, adopt the segmental high-resolution testing mode, and under the protection of 50 mL/min dry N2, heat the sample from room temperature to 300° C. at the heating rate of 10° C./min, the weight changes of the sample during the course are recorded by TA software simultaneously.

[10] = Particle size distribution (PSD), laser diffraction; format: physicochemical; conditions: for D10 / D50: dispersant water with 2% tween-80
Excerpt: The particle size distribution (PSD) plot is obtained using Microtrac S3500 laser diffraction particle size analyzer. The method parameters are as follows: flow velocity of the dispersant is 50%; the dispersant is water (added with 2% tween-80); the sample refractivity is 1.58; the laser source wavelength is 780 nm; and the integral mode is volume.
as §1

[11] = Competition test (suspension of equal amounts stirred overnight, XRPD); format: physicochemical; conditions: in pure water, room temperature, stirred overnight
Excerpt: The competition test is: take equal amount of the samples, and respectively place them in isopropanol or in a mixture of water (pure water) and ethanol (wherein the volume percentage of ethanol is 0%, 20%, 50%, 80% and 100%, respectively) to form a suspension, stir it overnight at room temperature, then compare their XRPDs.

[12] = Flowability observed during the experiments; format: physicochemical
[13] = tested on: one or more Raf-family kinases; conditions: disclosed in WO2009/137391A2 and U.S. Pat. No. 7,994,185B2; cited from earlier work
BRAFV600E-mutan melanoma = conditions: patients with BRAFV600E-mutan melanoma; cited from earlier work

Structure (SMILES)	Storage stability (crystal form by XRPD) [4]	Storage stability (crystal form) [4]	Morphology (particle shape) [5]	hygroscopicity (in words) [6]	crystal form stability when stirred [8]	decomposition temperature [9]	stability at high temperature (in words) [9]	D10 [10]	D50 [10]	Competition test, comparison of stability (position in the rank order) [11]	other results
CC(C)(C)c1nc(-c2cccc(NS(=O)(=O)c3c(F)cccc3F)c2F)c(-c2ccnc(N)n2)s1 [Crystal Form VI, N-[3-[5-(2-aminopyrimidin-4-yl)-2-(tert-butyl)thiazo-4-lyl]-2-fluorophenyl]-2,6-difluorobenzenesulfonamide]	its crystal form did not change	stable when stored for a long time	fine crystals; also recorded: Fine particles	not hygroscopic; also recorded: low hygroscopicity; also recorded: lower than that of the Known Crystal Form 1	keeps its form unchanged	271 °C	very stable at high temperature	7 μm	18 μm	>The Known Crystal Form 1	crystal form of API after physical blending with excipients ([1]; XRPD of Sample 1 vs Sample 3, lactose, microcrystalline cellulose, polyethylene glycol 6000): keeps unchanged; crystal form of API in the wet granulation process ([1]; XRPD of Sample 2 vs Sample 1, 50% aqueous ethanol solution): stable; also recorded: more stable than the Known Crystal Form 1 and the Known Crystal Form 2; crystal form stability after tableting ([1]; tablet): stable after tableting; crystal form stability in the wet granulation process or in the suspension ([1]; wet granulation process or suspension): keeps its form unchanged; crystal form in capsules ([2]; capsules prepared by wet granulation process, XRPD): stable; crystal form in capsules on storage ([2]; capsules stored 6 months at 40° C./75% RH): still stable; crystal form in oral suspension on storage ([3]; oral suspension stored 6 months at 40° C./75% RH): still stable; crystal form in oral suspension ([3]; oral suspension, XRPD): stable; stability of tablet on storage [7]: still stable
CC(C)(C)c1nc(-c2cccc(NS(=O)(=O)c3c(F)cccc3F)c2F)c(-c2ccnc(N)n2)s1 [Crystal Form VII, N-[3-[5-(2-aminopyrimidin-4-yl)-2-(tert-butyl)thiazo-4-lyl]-2-fluorophenyl]-2,6-difluorobenzenesulfonamide]	its crystal form does not change	stable when stored for a long time	rod-shaped crystals; also recorded: good morphology; also recorded: rod-shaped particles in large size; also recorded: Rod shape	low hygroscopicity; also recorded: lower than that of the Known Crystal Form 1	convert to Crystal Form VI of the present invention	270 °C	very stable at high temperature	91 μm	207 μm	more stable than the Known Crystal Form 1; also recorded: >The Known Crystal Form 2	flowability [12]: good and good flowability; particle size compared with known crystal forms [10]: larger particle size than those of the Known Crystal Form 1 and the Known Crystal Form 2; also recorded: larger than that of the Known Crystal Form 1 and the Known Crystal Form 2
CC(C)(C)c1nc(-c2cccc(NS(=O)(=O)c3c(F)cccc3F)c2F)c(-c2ccnc(N)n2)s1 [Dabrafenib, N-[3-[5-(2-aminopyrimidin-4-yl)-2-(tert-butyl)thiazo-4-lyl]-2-fluorophenyl]-2,6-difluorobenzenesulfonamide]											inhibitory effect on Raf-family kinases [13]: has the inhibitory effection; safety profile (BRAFV600E-mutan melanoma): acceptable safety profile; therapeutical activity (BRAFV600E-mutan melanoma): has therapeutical activities
